Test results from patent publication US20250019370A1, “L-LYSINE SALT OF 4-CHLORO-5-[4-(2,6-DICHLOROPHENYL)SULFONYLPIPERAZIN-1-YL]-1-BENZOFURAN-2-CARBOXYLIC ACID AND VARIOUS FORMS THEREOF” (ENYO PHARMA, priority 2023, published 2025).

Key:
[1] = Solubility kinetics in pH 4.5 acetate buffer; type: physicochemical; conditions: 37 ° C.
Procedure: The solubility kinetics of the salt forms as well as the native EYP001 free acid form were determined in FaSSIF and FeSSIF media, and in a pH 4.5 acetate buffer as detailed below:
The samples were prepared by adding an excess of each tested bulk (salt or native EYP001) to a given volume of test medium. The suspension was stirred by orbital stirring over 1 hour (in both pH 4.5 acetate buffer and FeSSIF medium) or 24 hours (inFaSSIF medium) at 37° C., protected from light.
In pH 4.5 acetate buffer, the soluble concentration was assessed after 0.5 hour and 1 hour of stirring.
At each time point, the “supernatant” was isolated and diluted in a solvent mixture allowing its injection into the chromatographic system. The concentration in solution in the test medium was determined by HPLC with external standardization.

[2] = Solubility kinetics in FeSSIF medium; type: physicochemical; conditions: for Soluble fraction: 37 ° C.; for pH: pH given with the soluble fraction
Procedure: The solubility kinetics of the salt forms as well as the native EYP001 free acid form were determined in FaSSIF and FeSSIF media, and in a pH 4.5 acetate buffer as detailed below: The samples were prepared by adding an excess of each tested bulk (salt or native EYP001) to a given volume of test medium. […] In FaSSIF medium, the soluble concentration was assessed after 24 hours of stirring. […] At each time point, the “supernatant” was isolated and diluted in a solvent mixture allowing its injection into the chromatographic system. The concentration in solution in the test medium was determined by HPLC with external standardization.

In the case of O=C(O)c1cc2c(Cl)c(N3CCN(S(=O)(=O)c4c(Cl)cccc4Cl)CC3)ccc2o1.c1ccc(CCNCc2ccccc2)cc1 [EYP001 Benethamine salt (polymorph I)], the Soluble fraction ([1]; after 0.5 h) is reported as 0.001 mg/mL of EYP001 and the Soluble fraction ([1]; after 1 h) is reported as 0.001 mg/mL of EYP001.
For O=C(O)c1cc2c(Cl)c(N3CCN(S(=O)(=O)c4c(Cl)cccc4Cl)CC3)ccc2o1.c1ccc(CCNCc2ccccc2)cc1 [EYP001 Benethamine salt (polymorph II)], the Soluble fraction ([1]; after 0.5 h) was 0.0002 mg/mL of EYP001 and the Soluble fraction ([1]; after 1 h) was 0.0003 mg/mL of EYP001.
For O=C([O-])c1cc2c(Cl)c(N3CCN(S(=O)(=O)c4c(Cl)cccc4Cl)CC3)ccc2o1.[K+] [EYP001 Potassium salt, reference compound], the Soluble fraction ([2]; after 0.5 h) was 0.35 mg/mL of EYP001, the Soluble fraction ([2]; after 1 h) was 0.38 mg/mL of EYP001 and the pH ([2]; after 0.5 h) was “(pH = 5.0)”. For the same molecule, the pH ([2]; after 1 h) was “(pH = 5.0)”.
